Data set [1] in a line: Peptide solubility in water. The procedure: (PA) (Table 1) were synthesized by New England Peptide (Gardner, MA) to >90% purity. Sarcosine variants and PEG were dissolved in water and the pH was adjusted with NaOH. PA was dissolved in DMSO and then brought up to the final concentration with water resulting in 30% DMSO and pH adjusted. Antibody sensitized sheep erythrocytes (EA), purified C1q and factor B-depleted human sera were purchased from Complement Technology (Tyler, TX). Purified myeloperoxidase was purchased from Lee BioSolutions (Maryland Heights, MO) and tetramethylbenzidine (TMB) and PicoGreen were purchased from Thermo Fisher (Waltham MA).
(PA), peptide derivatives were synthesized with sarcosine residues substituted at all 15 positions, included a peptide in which the vicinal cysteines at positions 9 and 10 (C9,C10) were replaced with a single sarcosine residue (Table 1).

Data set [2] deals with antibody-initiated complement activation (type O sera + type AB red blood cells). In words: ABO incompatibility hemolytic assay (CH50-type, ex vivo). It counts as cell-based, human. The conditions noted are these: peptides 1.8 mM; for ABO hemolysis: Avg of n = 4, concentration basis of PIC1 not stated. The method, then: For hemolytic complement assays, human red blood cells (RBCs) from type AB donors were purified, washed and standardized to 1 × 10^9 cells/ml, as previously described. Human sera from type O donors at a 20% final concentration was combined with 1 mM PIC1 or sarcosine variant peptides and the volume was brought up to 0.15 ml with GVBS^++ and 0.5 ml RBCs. For factor B-depleted sera hemolytic assays, a final of 0.005% factor B depleted sera was incubated with 1 mM PIC1 or sarcosine variant peptides with 0.1 ml antibody-sensitized sheep red blood cells (EA) in a final volume of 0.75 ml GVBS^++. The samples were incubated for 1 hour at 37 °C and then 1.0 ml of GVBS^-—was added to the factor B-depleted samples to stop the reaction. The samples were spun at 3,000 rpm for 5 minutes and the supernatant was collected and read at 412 nm. Values are represented as a percent of the positive control, which consists of human O sera and AB red blood cells in GVBS^++ buffer.
In order to evaluate the extent to which the peptide variants inhibit antibody-initiated complement activation, we tested them in two hemolytic assays including an ABO incompatibility ex vivo assay (Fig 1A) and a classical pathway CH50-type assay in factor B-depleted sera (Fig 1B). In the ABO incompatibility hemolytic assay, purified erythrocytes from a ‘type AB+’ donor are incubated with sera from a ‘type O’ subject containing anti-A and anti-B antibodies; peptides were tested at 1.8 mM. […] We then performed a CH50-type hemolytic assay, with antibody-sensitized sheep erythrocytes, isolating the classical pathway by utilizing factor B-depleted sera; peptides were tested at 0.4 mM.
Fig 1 Sarcosine variant inhibition of complement activation in hemolytic assays and C1q binding. A) Inhibition of ABO incompatibility hemolysis in a CH50-type assay. Peptides are at a final concentration of 1.8 mM. […] Data are the means of n = 4 independent experiments + SEM. B) Inhibition of classical complement pathway-mediated hemolysis in factor B-depleted sera in a CH50-type assay. Peptides are at a final concentration of 0.4 mM. Data are the means of n = 4 independent experiments + SEM. C) Binding of increasing concentrations of sarcosine variants to purified C1q in an ELISA-type assay. Data are the means of n = 3 independent experiments ± SEM. D) Half-maximal binding concentrations were calculated for each peptide’s binding curve.

Data set [3] is described as follows: Total Antioxidant Capacity (TAC) assay. The conditions noted are these: for TAC assay, antioxidant activity: Avg of n = 3; for antioxidant capacity (in words): TAC assay. The procedure:
The TAC (Total Antioxidant Capacity) Assay (Cell Biolabs, Inc, San Diego, CA) was used to measure the antioxidant capacity of the sarcosine variants based on the reduction of copper (II) to copper (I). The kit protocol was performed as recommended.
Antioxidant activity is measured in copper reducing equivalents (CRE). Peptides were tested over a range of concentrations from 0.03–0.25 mM then compared to the standard. Data are the means of n = 3 independent experiments + SEM.

Data set [4] relates to purified human neutrophils. In words: NETosis assay, free DNA by PicoGreen. It counts as cell-based. The note with it: for PICO green - NETs, free DNA release: Average of n = 3, peptide 2 mM. The method, then:
NETosis assays with immune complexes were performed as previously described. Briefly, normal human serum was stimulated with ovalbumin-antiovalbumin immune complexes in GVBS^++ for 30 minutes at 37 °C. This mixture along with 0.05% H2O2 was then added to purified human neutrophils resuspended in RPMI with or without sarcosine variants (2 mM), allowing NETosis to occur. Quantitation of free DNA released from the neutrophils was performed using PicoGreen. Slides were stained with DAPI (Southern Biotech, Birmingham, AL) and the following antibodies, mouse anti-elastase (Invitrogen, Carlsbad, CA) was used with the secondary goat anti-mouse Alexa Fluor 568 (Novus Biologicals, Centennial, CO) and rabbit anti-histone H3 (Abcam, Cambridge MA) with goat anti-rabbit Alexa Fluor 488 (Novus Biologicals) to visualize formation of NETs which were imaged with fluorescence microscopy with an Olympus BX53 microscope.
In this assay purified human neutrophils are stimulated with normal human serum activated with ovalbumin-antiovalbumin immune complexes and hydrogen peroxide. Free DNA expressed from the neutrophils is then measured in a PicoGreen assay.
Fig 5 Sarcosine variant inhibition of NET formation. Fluorescence microscopy images of NET formation after neutrophil stimulation with immune complexes (IC) and hydrogen peroxide (H2O2) compared with neutrophil only control. Variant I8 inhibition of NET formation is shown in the third row. Histones are probed with anti-histone antibody (αhistone), neutrophil elastase is probed with anti-neutrophil elastase (αNE) and DNA is stained with DAPI. Representative images are shown. […] Purified human neutrophils were stimulated with 2% normal human sera pre-incubated with ovalbumin-antiovalbumin immune complexes, and 0.05% H2O2. Sarcosine peptides and PIC1 were added to the sera to a final concentration of 2 mM. Data are the means of n = 3 independent experiments + SEM.

The next data set deals with T1, C1q (Homo sapiens, UniProt P02745+P02746+P02747).
T1 construct: purchased Complement Technology (Tyler, TX)
T1 sequence (P02745 23-245): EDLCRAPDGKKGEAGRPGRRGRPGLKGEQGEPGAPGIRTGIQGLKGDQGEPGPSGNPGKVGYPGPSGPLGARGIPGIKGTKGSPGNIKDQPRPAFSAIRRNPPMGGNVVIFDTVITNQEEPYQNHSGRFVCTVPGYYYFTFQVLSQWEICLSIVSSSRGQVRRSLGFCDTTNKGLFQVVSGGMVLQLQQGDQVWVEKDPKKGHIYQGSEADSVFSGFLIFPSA
T1 sequence (P02746 28-253): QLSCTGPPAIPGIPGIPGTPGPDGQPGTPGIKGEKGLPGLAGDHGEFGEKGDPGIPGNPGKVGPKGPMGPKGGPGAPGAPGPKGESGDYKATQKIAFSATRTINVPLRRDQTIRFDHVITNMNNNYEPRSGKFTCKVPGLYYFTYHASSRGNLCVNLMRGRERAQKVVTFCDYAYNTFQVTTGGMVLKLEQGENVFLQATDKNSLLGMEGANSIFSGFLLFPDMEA
T1 sequence (P02747 29-245): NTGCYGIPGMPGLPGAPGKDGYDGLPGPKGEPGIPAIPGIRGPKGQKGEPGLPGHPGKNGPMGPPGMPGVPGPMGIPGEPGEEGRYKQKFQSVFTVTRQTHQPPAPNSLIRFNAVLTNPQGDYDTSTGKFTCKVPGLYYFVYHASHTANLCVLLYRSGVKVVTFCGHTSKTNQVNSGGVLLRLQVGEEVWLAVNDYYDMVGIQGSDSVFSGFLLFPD
In words: C1q binding ELISA-type assay. The conditions noted are these: C1q as capture substrate. The method, then: An Immunlon-2 HB ELISA plate was coated with 1 μg/ml C1q or MPO in bicarbonate buffer overnight at 4 °C. The plates were washed with PBST (phosphate buffered saline + 0.1% Tween) and then blocked with 1% gelatin/PBS for 2 hours at room temperature. After washing, the plates were incubated with PA or sarcosine variant peptides starting at 2.5 mg/ml and then serially diluted in 1% gelatin/PBS for 1 hour at room temperature. After washing, the plates were probed with rabbit anti-PA (developed with Cocalico Biologicals, Reamstown, PA) at 1:1000 in 1% gelatin/PBS for 1 hour, room temperature, followed by a goat anti-rabbit HRP (Sigma Aldrich, St Louis, MO) at 1:1,000 in 1% gelatin/PBS for 1 hour at room temperature with a washing step in between. Wells were developed using TMB substrate solution, stopped using 1 N H2SO4, and read at 450 nm in a plate reader.
We then tested peptide variant binding to C1q in an ELISA-type assay in which the C1q is used as the capture substrate. Binding curves for each peptide is shown in Fig 1C, from which half-maximal binding concentrations were calculated (Fig 1D). […] Higher concentrations of DMSO interfere with the detecting reagents resulting in a partial binding curve.
Background: An ELISA detects its analyte on a solid surface through an enzyme-linked reagent.

Five molecules from PMC6938345, “Inhibition of complement activation, myeloperoxidase, NET formation and oxidant activity by PIC1 peptide variants” (PLoS ONE, 2019) can be followed below.

Turning to `CC[C@H](C)[C@H](N)C(=O)N(C)CC(=O)N[C@@H](CC(C)C)C(=O)N[C@H](C(=O)N[C@@H](CC(C)C)C(=O)N[C@@H](CCC(=O)O)C(=O)N1CCC[C@H]1C(=O)N[C@H](C(=O)N[C@@H](CS)C(=O)N[C@@H](CS)C(=O)N[C@@H](CCC(N)=O)C(=O)N[C@@H](CCC(=O)O)C(=O)N[C@@H](CCCNC(=N)N)C(=O)N[C@@H](C)C(=O)N[C@@H](C)C(=O)O)[C@@H](C)CC)[C@@H](C)CC` [A2], the “solubility in water (in words)” value in data set [1] is “soluble in water”. For the same molecule, in data set [2], the ABO hemolysis is 18.50 % of Control and the “inhibition of ABO incompatible hemolysis (in words)” value is listed as “to a greater extent than did the PA-dPEG24”. Also, in data set [3], the “TAC assay, antioxidant activity” value is 1071.61 copper reducing equivalents (CRE). Moreover, the “PICO green - NETs, free DNA release” value in data set [4] came out at 44.
On to `CC[C@H](C)[C@H](N)C(=O)N[C@@H](C)C(=O)N[C@@H](CC(C)C)C(=O)N[C@H](C(=O)N(C)CC(=O)N[C@@H](CCC(=O)O)C(=O)N1CCC[C@H]1C(=O)N[C@H](C(=O)N[C@@H](CS)C(=O)N[C@@H](CS)C(=O)N[C@@H](CCC(N)=O)C(=O)N[C@@H](CCC(=O)O)C(=O)N[C@@H](CCCNC(=N)N)C(=O)N[C@@H](C)C(=O)N[C@@H](C)C(=O)O)[C@@H](C)CC)[C@@H](C)CC` [L5], for which the “solubility in water (in words)” value in data set [1] is on record as “soluble in water”. Moreover, the ABO hemolysis in data set [2] is 33.50 % of Control. In data set [3], the “TAC assay, antioxidant activity” value is 882.23 copper reducing equivalents (CRE). The “PICO green - NETs, free DNA release” value in data set [4] came to 32.
For the molecule `CC[C@H](C)[C@H](N)C(=O)N[C@@H](C)C(=O)N[C@@H](CC(C)C)C(=O)N[C@H](C(=O)N[C@@H](CC(C)C)C(=O)N[C@@H](CCC(=O)O)C(=O)N1CCC[C@H]1C(=O)N[C@H](C(=O)N[C@@H](CS)C(=O)N[C@@H](CS)C(=O)N[C@@H](CCC(N)=O)C(=O)N[C@@H](CCC(=O)O)C(=O)N[C@@H](CCCNC(=N)N)C(=O)N[C@@H](C)C(=O)N[C@@H](C)C(=O)O)[C@@H](C)CC)[C@@H](C)CC` [PA], the “solubility in water (in words)” value in data set [1] is on record as “poor aqueous solubility”. In addition, the “binding to C1q (in words)” value at C1q is given as “superior binding to C1q”. The “TAC assay, antioxidant activity” value in data set [3] is given as 1289.18 copper reducing equivalents (CRE).
`CC[C@H](C)[C@H](N)C(=O)N[C@@H](C)C(=O)N[C@@H](CC(C)C)C(=O)N(C)CC(=O)N[C@@H](CC(C)C)C(=O)N[C@@H](CCC(=O)O)C(=O)N1CCC[C@H]1C(=O)N[C@H](C(=O)N[C@@H](CS)C(=O)N[C@@H](CS)C(=O)N[C@@H](CCC(N)=O)C(=O)N[C@@H](CCC(=O)O)C(=O)N[C@@H](CCCNC(=N)N)C(=O)N[C@@H](C)C(=O)N[C@@H](C)C(=O)O)[C@@H](C)CC` [I4]: the “solubility in water (in words)” value in data set [1] is on record as “soluble in water”. Besides, in data set [2], the ABO hemolysis was 18.25 % of Control and the “inhibition of ABO incompatible hemolysis (in words)” value is reported as “to a greater extent than did the PA-dPEG24”. Besides, in data set [3], the “TAC assay, antioxidant activity” value is 1518.02 copper reducing equivalents (CRE) and the “antioxidant capacity (in words)” value is reported as “approaching that of PA-dPEG24”. The “PICO green - NETs, free DNA release” value in data set [4] amounted to 68. The “inhibition of NETosis (in words)” value in data set [4] (peptides 2 mM, immune complexes + H2O2, PicoGreen free DNA) is recorded as “reduced ability to inhibit NETosis”.
On to `CC[C@H](C)[C@H](N)C(=O)N[C@@H](C)C(=O)N(C)CC(=O)N[C@H](C(=O)N[C@@H](CC(C)C)C(=O)N[C@@H](CCC(=O)O)C(=O)N1CCC[C@H]1C(=O)N[C@H](C(=O)N[C@@H](CS)C(=O)N[C@@H](CS)C(=O)N[C@@H](CCC(N)=O)C(=O)N[C@@H](CCC(=O)O)C(=O)N[C@@H](CCCNC(=N)N)C(=O)N[C@@H](C)C(=O)N[C@@H](C)C(=O)O)[C@@H](C)CC)[C@@H](C)CC` [L3], for which the “solubility in water (in words)” value in data set [1] is “soluble in water”. In addition, in data set [2], the ABO hemolysis is reported as 24.75 % of Control. Also, in data set [3], the “TAC assay, antioxidant activity” value was 1336.63 copper reducing equivalents (CRE) and the “antioxidant capacity (in words)” value was “approaching that of PA-dPEG24”. Also, in data set [4], the “PICO green - NETs, free DNA release” value was found to be 29.
